{
  "source": "paper PMC6959985",
  "about": "(Analytical chemistry, 2019)",
  "key": {"[1]": {"target": "T1, KLHDC2 (Homo sapiens, UniProt Q9Y2U9)", "T1 sequence (Q9Y2U9 1-406)": "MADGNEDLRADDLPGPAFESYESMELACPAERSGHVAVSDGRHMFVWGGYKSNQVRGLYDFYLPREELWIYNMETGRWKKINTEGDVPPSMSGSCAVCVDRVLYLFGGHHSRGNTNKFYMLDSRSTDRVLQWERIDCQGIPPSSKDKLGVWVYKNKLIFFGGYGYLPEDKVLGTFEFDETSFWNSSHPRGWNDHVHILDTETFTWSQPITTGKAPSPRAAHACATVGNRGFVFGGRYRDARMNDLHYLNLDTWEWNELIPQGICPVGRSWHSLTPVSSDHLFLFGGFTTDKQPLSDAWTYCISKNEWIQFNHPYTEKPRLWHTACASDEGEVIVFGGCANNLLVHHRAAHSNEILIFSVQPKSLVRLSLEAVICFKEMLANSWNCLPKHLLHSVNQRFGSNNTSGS"}, "[2]": {"target": "T1, KLHDC2", "details": "recently characterized selenoprotein fragment, comparison value; ref [19]; cited from earlier work"}, "[3]": {"target": "T1, KLHDC2", "assay": "Luminescence-based competition assay", "details": "discussion of binding of both peptides; HLRGSPPPMAGG characterized in ref [19]"}, "[4]": {"target": "T2, KLHDC2 (as used in the AlphaScreen competition assay) (human, UniProt Q9Y2U9 1-406)", "T2 sequence (looked up)": "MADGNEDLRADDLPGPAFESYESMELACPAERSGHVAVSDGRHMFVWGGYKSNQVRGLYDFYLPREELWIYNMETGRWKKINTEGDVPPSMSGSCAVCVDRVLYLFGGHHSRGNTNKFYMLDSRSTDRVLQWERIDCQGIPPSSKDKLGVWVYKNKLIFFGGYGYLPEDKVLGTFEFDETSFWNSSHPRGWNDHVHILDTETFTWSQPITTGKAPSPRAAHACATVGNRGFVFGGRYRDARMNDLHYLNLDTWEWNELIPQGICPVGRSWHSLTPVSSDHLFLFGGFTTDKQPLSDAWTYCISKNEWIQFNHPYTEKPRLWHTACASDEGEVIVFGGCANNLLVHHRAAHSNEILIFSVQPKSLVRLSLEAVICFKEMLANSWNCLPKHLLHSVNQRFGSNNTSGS", "assay": "AlphaScreen or HTRF"}},
  "note": "Where no end group is shown, it is not given here.",
  "data": [
    {"molecule": "ASDEGEVIVFGG [ASDEGEVIVFGG]", "values": [
      {"measurement": "Identification as interacting peptide by native top-down MS", "setting": "[1]", "result": "identified using native top-down MS"}
    ]},
    {"molecule": "EKGGGSGGG", "values": [
      {"measurement": "Identification as interacting peptide by native top-down MS", "setting": "[1]", "result": "identified using native top-down MS"}
    ]},
    {"molecule": "GGGSGGG", "values": [
      {"measurement": "Identification as interacting peptide by native top-down MS", "setting": "[1]", "result": "identified using native top-down MS"}
    ]},
    {"molecule": "HLRGSPPPMAGG", "values": [
      {"measurement": "IC50", "setting": "[2]", "result": 3.4, "unit": "nM"},
      {"measurement": "Binding to KLHDC2", "setting": "[3]", "result": "extremely tight binding"}
    ]},
    {"molecule": "ASDEGEVIVFGG", "note": "[synthesized peptide F (ASDEGEVIVFGG)]", "values": [
      {"measurement": "IC50", "setting": "[4]", "result": 5.3, "unit": "nM"}
    ]}
  ]
}
